{
  "source": "paper PMC10781097",
  "about": "“Chemical Profile and Health-Promoting Activities of Crataegus laciniata (Rosaceae) Flowers” (Plants, 2023)",
  "key": {"[1]": {"assay": "DPPH radical scavenging activity", "conditions": "mean ± SD, n = 3", "description": "DPPH scavenging activity was measured using the method of Xiong et al., albeit with minor modifications. […] After shaking, the mixture was stored in the dark for 30 min at room temperature, and, finally, the absorbance was measured at 517 nm. Ascorbic acid served as the positive control. The percentage of DPPH scavenging activity was calculated using the following formula: Inhibition(%)=(C-S)/C∗100 where C = the absorbance of the control, and S = the absorbance of the extract."}, "α-amylase": {"tested_on": "α-amylase", "design": "method as in PMID 36115306", "conditions": "cited from earlier work"}, "TYR": {"tested_on": "TYR", "design": "method as in PMID 30458808, PMID 26059994", "conditions": "cited from earlier work"}, "[2]": {"assay": "TEAC test (ABTS radical scavenging activity)", "conditions": "mean ± SD, n = 3", "description": "The free radical scavenging activities of extracts were also determined via the TEAC test using ABTS radical following the method reported by Wang et al.. […] Trolox was used as a positive control. The percentage of ABTS free radical scavenging activity was calculated using the following formula: Inhibition(%)=(C−S)/C∗100 Data were expressed in terms of the decrease in ABTS scavenging activity by 50%."}, "α-glucosidase": {"tested_on": "α-glucosidase", "conditions": "cited from earlier work"}, "zebrafish embryos": {"tested_on": "zebrafish embryos", "assay": "Zebrafish embryo pigmentation (whitening effect)", "assay_type": "in vivo, Danio rerio", "conditions": "30 µg/mL, 72 hpf, control = 100% pigmentation", "description": "Adult zebrafish specimens (male and female) were maintained in a temperature-controlled aquarium (28.5 °C) with light-dark cycles and regularly fed with Artemia salina larvae. After natural deposition, the laid eggs were collected and incubated at 28.5 °C. After 24 h, all the eggs were observed under a stereomicroscope (SMZ-171 Series, Motic, Hong Kong, China) to select the fertilized ones. The vitality test and whitening effect were evaluated in vivo on zebrafish embryos according to the following method. […] Control embryos were incubated with embryo water (negative control). After 48 h of incubation at 28 °C (72 hpf), the effects of the treatment were observed using a stereomicroscope (SMZ-171 Series, Motic) equipped with a digital camera (Moticam® 5 plus) for image acquisition. The abnormal phenotypes and mortality of each treated group were documented. […] The images were converted to gray scale, and the pixel measurements analyzer program was used to count the area of the zebrafish image pigmentation. The quantification of pigmentation was expressed as a percentage change compared to the control group, which was considered to be 100%. All experiments were performed in compliance with the European Directive 2010/63/EU and following the ethical guidelines described by the National Institute of Health Guide for the Care and Use of Laboratory Animals."}},
  "data": [
    {"smiles": "O=C1O[C@H]([C@@H](O)CO)C(O)=C1O", "note": "[Ascorbic acid]", "values": [
      {"measurement": "DPPH (IC50 µg/mL)", "setting": "[1]", "result": "16.95 ± 1.20", "unit": "µg/mL"}
    ]},
    {"smiles": "O=c1c(O[C@@H]2O[C@H](CO)[C@H](O)[C@H](O)[C@H]2O)c(-c2ccc(O)c(O)c2)oc2cc(O)cc(O)c12", "note": "[hyperoside, Hyperoside]", "values": [
      {"measurement": "manner of α-amylase inhibition", "setting": "α-amylase", "result": "competitive"},
      {"measurement": "TYR inhibition", "setting": "TYR", "result": "effective TYR inhibitors"}
    ]},
    {"smiles": "Cc1c(C)c2c(c(C)c1O)CCC(C)(C(=O)O)O2", "note": "(stereo not shown) [Trolox]", "values": [
      {"measurement": "TEAC (IC50 µg/mL)", "setting": "[2]", "result": "13.08 ± 0.02", "unit": "µg/mL"}
    ]},
    {"smiles": "O=c1cc(-c2ccc(O)cc2)oc2c([C@@H]3O[C@H](CO)[C@@H](O)[C@H](O)[C@H]3O)c(O)cc(O)c12", "note": "[vitexin, Vitexin]", "values": [
      {"measurement": "TYR inhibition", "setting": "TYR", "result": "effective TYR inhibitors"},
      {"measurement": "mechanism of action on α-glucosidase", "setting": "α-glucosidase", "result": "uncompetitive"}
    ]},
    {"smiles": "NC(=S)Nc1ccccc1", "note": "[1-Phenyl-2-thiourea (PTU), 1-Phenyl-2-thiourea]", "values": [
      {"measurement": "embryo pigmentation, % vs. control", "setting": "zebrafish embryos", "result": 36.00, "unit": "%"}
    ]}
  ]
}
